Measured values reported in publication PMC9095466 (Nature, 2022).
Values joined by “and” are separate entries in the source; they are usually repeats but may differ in a detail not shown here. Equal entries are not always repeated. Where two headings read alike, the source gives them in different places.

Tests used:
[1] = target: human TMPRSS2 (Homo sapiens, UniProt O15393); assay: cell-based; conditions: for TMPRSS2 relative activity: technical duplicates
[2] = target: T1, Recombinant human matriptase (Homo sapiens, UniProt Q9Y5Y6); assay: Protease selectivity, Ki on recombinant protease; assay type: biochemical; conditions: mean ± s.d., max concentration 10 µM; read-out: Ki Matriptase
T1 construct: made in house
T1 sequence (Q9Y5Y6 1-855): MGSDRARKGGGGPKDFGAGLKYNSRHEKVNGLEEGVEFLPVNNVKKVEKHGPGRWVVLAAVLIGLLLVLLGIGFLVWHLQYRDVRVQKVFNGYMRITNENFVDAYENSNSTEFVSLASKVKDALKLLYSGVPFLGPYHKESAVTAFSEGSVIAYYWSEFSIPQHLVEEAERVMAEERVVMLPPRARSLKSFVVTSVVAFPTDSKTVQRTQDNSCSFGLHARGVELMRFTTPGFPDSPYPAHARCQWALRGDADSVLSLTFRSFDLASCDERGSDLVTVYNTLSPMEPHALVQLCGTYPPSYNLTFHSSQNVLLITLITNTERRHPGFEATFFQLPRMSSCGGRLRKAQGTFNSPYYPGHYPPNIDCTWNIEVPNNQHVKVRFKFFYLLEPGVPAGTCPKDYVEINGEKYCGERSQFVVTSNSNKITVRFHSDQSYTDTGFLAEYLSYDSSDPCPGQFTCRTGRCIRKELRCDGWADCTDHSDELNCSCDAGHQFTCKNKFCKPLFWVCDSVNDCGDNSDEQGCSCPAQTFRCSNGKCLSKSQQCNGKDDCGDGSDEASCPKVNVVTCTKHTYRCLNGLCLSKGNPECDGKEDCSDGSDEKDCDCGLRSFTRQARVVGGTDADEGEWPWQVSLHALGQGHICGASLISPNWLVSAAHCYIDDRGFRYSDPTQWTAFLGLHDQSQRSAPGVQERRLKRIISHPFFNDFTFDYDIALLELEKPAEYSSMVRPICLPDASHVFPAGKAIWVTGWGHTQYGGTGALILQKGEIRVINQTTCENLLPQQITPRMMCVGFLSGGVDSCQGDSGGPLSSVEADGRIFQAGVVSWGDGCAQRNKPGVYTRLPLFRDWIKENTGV

[3] = target: T2, Recombinant human hepsin (Homo sapiens, UniProt P05981); assay: Protease selectivity, Ki on recombinant protease; assay type: biochemical; conditions: mean ± s.d., max concentration 10 µM; read-out: Ki Hepsin
T2 construct: made in house
T2 sequence (P05981 whole entry): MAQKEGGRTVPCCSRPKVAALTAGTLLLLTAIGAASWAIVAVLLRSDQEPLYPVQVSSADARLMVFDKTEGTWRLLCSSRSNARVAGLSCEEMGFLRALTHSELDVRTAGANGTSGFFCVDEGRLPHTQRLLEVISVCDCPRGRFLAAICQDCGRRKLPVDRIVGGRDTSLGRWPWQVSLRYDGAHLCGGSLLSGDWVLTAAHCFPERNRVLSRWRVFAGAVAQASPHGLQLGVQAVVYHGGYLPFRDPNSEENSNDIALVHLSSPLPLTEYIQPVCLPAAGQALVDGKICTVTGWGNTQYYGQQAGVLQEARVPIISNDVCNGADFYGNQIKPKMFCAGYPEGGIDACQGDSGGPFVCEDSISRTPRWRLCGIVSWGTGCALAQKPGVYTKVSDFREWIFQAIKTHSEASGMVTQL

[4] = target: T3, Recombinant human DESC1 (Homo sapiens, UniProt Q9UL52); assay: Protease selectivity, Ki on recombinant protease; assay type: biochemical; conditions: mean ± s.d., max concentration 10 µM; read-out: Ki DESC1
T3 construct: made in house
T3 sequence (Q9UL52 1-423): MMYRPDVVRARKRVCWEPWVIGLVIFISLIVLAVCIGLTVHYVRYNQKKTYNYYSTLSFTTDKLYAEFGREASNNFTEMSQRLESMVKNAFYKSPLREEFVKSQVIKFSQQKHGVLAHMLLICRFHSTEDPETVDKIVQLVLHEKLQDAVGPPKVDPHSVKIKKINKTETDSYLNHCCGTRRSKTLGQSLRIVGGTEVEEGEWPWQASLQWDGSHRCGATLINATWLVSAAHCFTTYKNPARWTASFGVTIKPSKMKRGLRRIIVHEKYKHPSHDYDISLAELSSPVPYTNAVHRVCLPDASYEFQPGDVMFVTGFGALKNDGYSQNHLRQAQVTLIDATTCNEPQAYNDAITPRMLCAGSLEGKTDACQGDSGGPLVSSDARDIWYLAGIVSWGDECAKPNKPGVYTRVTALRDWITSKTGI

[5] = target: T4, human thrombin (Homo sapiens, UniProt P00734); assay: Protease selectivity, Ki on protease; assay type: biochemical; conditions: mean ± s.d., max concentration 10 µM; read-out: Ki Thrombin
T4 construct: purchased MilliporeSigma

[6] = target: T5, Recombinant human furin (Homo sapiens, UniProt P09958); assay: Protease selectivity, Ki on recombinant protease; assay type: biochemical; conditions: mean ± s.d., max concentration 10 µM; read-out: Ki Furin
T5 construct: purchased Bio-Techne
T5 sequence (P09958 108-794): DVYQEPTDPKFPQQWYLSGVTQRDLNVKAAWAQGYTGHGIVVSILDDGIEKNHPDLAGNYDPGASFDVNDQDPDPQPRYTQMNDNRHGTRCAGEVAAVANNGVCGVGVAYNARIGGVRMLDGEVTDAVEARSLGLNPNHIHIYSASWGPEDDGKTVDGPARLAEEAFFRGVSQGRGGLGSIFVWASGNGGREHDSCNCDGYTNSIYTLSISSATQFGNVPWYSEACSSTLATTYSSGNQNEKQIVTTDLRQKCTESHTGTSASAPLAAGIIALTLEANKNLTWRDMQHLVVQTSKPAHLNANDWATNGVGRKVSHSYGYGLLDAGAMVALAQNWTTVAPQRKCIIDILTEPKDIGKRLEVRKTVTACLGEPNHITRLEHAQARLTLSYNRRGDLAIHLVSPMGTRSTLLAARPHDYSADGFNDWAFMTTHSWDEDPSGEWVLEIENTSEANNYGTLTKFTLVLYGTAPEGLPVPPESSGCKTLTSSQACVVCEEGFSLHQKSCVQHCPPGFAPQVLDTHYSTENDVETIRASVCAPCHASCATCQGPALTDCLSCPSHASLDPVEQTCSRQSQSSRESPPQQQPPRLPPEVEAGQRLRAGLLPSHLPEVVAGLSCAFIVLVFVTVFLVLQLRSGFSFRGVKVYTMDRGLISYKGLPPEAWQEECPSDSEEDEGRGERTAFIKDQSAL

[7] = target: T6, human cathepsin L (Homo sapiens, UniProt P07711); assay: Protease selectivity, Ki on protease; assay type: biochemical; conditions: mean ± s.d., max concentration 10 µM; read-out: Ki Cathepsin L
T6 construct: purchased Bio-Techne
T6 sequence (P07711 114-333): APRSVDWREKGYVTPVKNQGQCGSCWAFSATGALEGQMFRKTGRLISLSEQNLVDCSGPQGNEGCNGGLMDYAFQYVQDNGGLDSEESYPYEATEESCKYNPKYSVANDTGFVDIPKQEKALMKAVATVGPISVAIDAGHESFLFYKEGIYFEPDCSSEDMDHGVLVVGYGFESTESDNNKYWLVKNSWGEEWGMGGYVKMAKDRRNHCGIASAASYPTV

[8] = tested on: SARS-CoV-2 lineage B strain (VIDO); assay: microbe, parasite or virus in culture; assay type: cell-based
[9] = Cytotoxicity CC50 in Calu-3 lung epithelial cells; assay type: cell-based, human; conditions: human, Calu-3 cells; for viability at 24 h, 3000 µM: Log [inhibitor] -2.52; for viability at 24 h, 1000 µM: Log [inhibitor] -3.00; for viability at 24 h, 300 µM: Log [inhibitor] -3.52; for viability at 24 h, 100 µM: Log [inhibitor] -4.00; for viability at 24 h, 30 µM: Log [inhibitor] -4.52; for viability at 24 h, 10 µM: Log [inhibitor] -5.00; for viability at 24 h, 3 µM: Log [inhibitor] -5.52; for viability at 24 h, 0.3 µM: Log [inhibitor] -6.52; for viability at 24 h, 0.03 µM: Log [inhibitor] -7.52; for viability at 24 h, 0.003 µM: Log [inhibitor] -8.52
[10] = tested on: Calu-3 cells; assay: Cytotoxicity CC50 in Calu-3 lung epithelial cells; assay type: cell-based, human; conditions: single replicates
[11] = read-out: % of Viability, Average (n=2)
[12] = single replicates, read-out: % of Viability

human TMPRSS2, sequence (O15393 whole entry): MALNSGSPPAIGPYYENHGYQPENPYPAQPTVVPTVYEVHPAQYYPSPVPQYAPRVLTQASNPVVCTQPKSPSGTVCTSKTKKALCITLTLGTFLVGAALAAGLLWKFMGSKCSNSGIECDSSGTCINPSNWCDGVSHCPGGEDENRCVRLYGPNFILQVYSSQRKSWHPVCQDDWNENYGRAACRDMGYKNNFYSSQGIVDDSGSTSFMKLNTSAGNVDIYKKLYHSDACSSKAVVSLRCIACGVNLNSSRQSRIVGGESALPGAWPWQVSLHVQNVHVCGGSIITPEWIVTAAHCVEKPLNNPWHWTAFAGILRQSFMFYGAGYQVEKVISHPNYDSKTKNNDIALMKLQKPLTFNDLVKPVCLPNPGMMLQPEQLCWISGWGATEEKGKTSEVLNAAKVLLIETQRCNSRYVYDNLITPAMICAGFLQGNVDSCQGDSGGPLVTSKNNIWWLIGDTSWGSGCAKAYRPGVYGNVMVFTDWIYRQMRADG

In the case of N=C(N)NCCCCC(=O)NC(CCC(N)=O)C(=O)NC(Cc1ccccc1)C(=O)NC(CCCNC(=N)N)C(=O)c1nc2ccccc2s1 (stereo not shown) [Compound N-0130, (H)RQFR-kbt], the TMPRSS2 relative activity ([1]; 1.00E-06 M) is reported as 5.317 and 4.665, the TMPRSS2 relative activity ([1]; 1.00E-07 M) is reported as 0.9344 and 1.227 and the TMPRSS2 relative activity ([1]; 2.00E-08 M) is reported as 26.2346 and 28.2385. For the same compound, the TMPRSS2 relative activity ([1]; 3.20E-11 M) was 95.7258 and 93.264, the TMPRSS2 relative activity ([1]; 4.00E-09 M) was 48.3901 and 50.7993 and the TMPRSS2 relative activity ([1]; 8.00E-10 M) was 84.4379 and 85.0608. For the same compound, the “TMPRSS2 activity (%)” value ([1]; Figure 1B, single experiments N1-N3) was 32.9396% and 22.7789% and 30.45%, the IC50 ([1]; TMPRSS2, mean of independent experiments, Figure 1C, read-out: IC50 Mean) was 0.0031 µM and the IC50 ([1]; TMPRSS2, single experiments, Figure 1C, read-out: IC50 determined from independant experiments) was 0.00174 µM and 0.00287 µM and 0.0047 µM. For the same compound, the inhibition at 0.01 µM ([1]; Vero C1008, 10 nM compound, 24 h, vs untreated/vehicle TMPRSS2-expressing Vero E6 cells, read-out: inhibition of TMPRSS2 activity (reduction of substrate proteolysis)) was 72%, the IC50 ([1]; Vero E6 cells expressing human TMPRSS2, 24 h with fluorogenic substrate, read-out: TMPRSS2 IC50 ± SD) was 0.0031 ± 0.0015 µM and the Ki [2] was 0.00013 ± 3e-05 µM. For the same compound, the Ki [3] was 0.00038 ± 0.00019 µM, the Ki [4] was 0.028 ± 0.01 µM and the Ki [5] was 8.23 ± 1.55 µM. For the same compound, the Ki [6] was > 10 µM, the Ki [7] was > 10 µM and the Nucleocapsid ([8]; Figure 2a, two replicates, DMSO control about 91-94) was 2.419 and 11.8709. For the same compound, the dsRNA ([8]; Figure 2a, two replicates, DMSO control about 93-95) was 3.583 and 18.343, the EC50 ([8]; Severe acute respiratory syndrome coronavirus 2, Calu-3, read-out: SARS-CoV-2 VIDO Nucleocapsid EC50 ± SE) was 0.0301 ± 0.0301 µM and the inhibition at 0.1 µM ([8]; Severe acute respiratory syndrome coronavirus 2, Calu-3, read-out: inhibition of SARS-CoV-2 infection) was > 93%. For the same compound, the “Figure 2b dose-response, Mean” value ([8]; log [C] (nM) 0.20412) was 93.6494, the “Figure 2b dose-response, Mean” value ([8]; log [C] (nM) 0.90309) was 82.4234 and the “Figure 2b dose-response, Mean” value ([8]; log [C] (nM) 1.60206) was 39.6362. The “Figure 2b dose-response, Mean” value ([8]; log [C] (nM) 2.30103) was 5.2153, the “Figure 2b dose-response, Mean” value ([8]; log [C] (nM) 3) was 0.8023 and the “Figure 2b dose-response, Mean” value ([8]; log [C] (nM) -0.49485) was 100. The “Figure 2b dose-response, Mean” value ([8]; log [C] (nM) -1.19382) was 97.2147, the viability at 24 h, 3000 µM [9, 11] was 44.5% and the viability at 24 h, 3000 µM [9, 12] was 42%. For the same compound, the viability at 24 h, 1000 µM [9, 11] was 86.5%, the viability at 24 h, 1000 µM [9, 12] was 84% and the viability at 24 h, 300 µM [9, 11] was 90.5%. It also gave a viability at 24 h, 300 µM [9, 12] of 90%, a viability at 24 h, 100 µM [9, 11] of 91% and a viability at 24 h, 100 µM [9, 12] of 88%. The viability at 24 h, 30 µM [9, 11] was 96.5%, the viability at 24 h, 30 µM [9, 12] was 98% and the viability at 24 h, 10 µM [9, 11] was 95%. For the same compound, the viability at 24 h, 10 µM [9, 12] was 98%, the viability at 24 h, 3 µM [9, 11] was 100% and the viability at 24 h, 3 µM [9, 12] was 99%. The viability at 24 h, 0.3 µM [9, 11] was 106%, the viability at 24 h, 0.3 µM [9, 12] was 103% and the viability at 24 h, 0.03 µM [9, 11] was 101%. It also gave a viability at 24 h, 0.03 µM [9, 12] of 99%, a viability at 24 h, 0.003 µM [9, 11] of 104% and a viability at 24 h, 0.003 µM [9, 12] of 101%. The CC50 at 24 h ([9]; unit not given for CC50, read-out: CC50) was 2680 µM, the “% of Viability” value ([10]; Log [inhibitor] -2.52) was 47% and the “% of Viability” value ([10]; Log [inhibitor] -3.00) was 89%. The “% of Viability” value ([10]; Log [inhibitor] -4.00) was 94%, the “% of Viability” value ([10]; Log [inhibitor] -5.00) was 92% and the “% of Viability” value ([10]; Log [inhibitor] -6.52) was 108%. For the same compound, the “% of Viability” value ([10]; Log [inhibitor] -8.52) was 107%.
